US9593127B2, “Heterocyclylalkyne derivatives and their use as modulators of mGluR5 receptors” (RECORDATI IRELAND LTD., priority 2014, dated 2017)

Key:
[1] = target: T1, human mGlu5 receptor (CHO T-REx h-mGluR5 cells) (Homo sapiens (Human), UniProt P41594); assay: Calcium fluorescence measurement, potentiation of mGlu5 activation at EC20 of glutamate; assay type: cell-based; conditions: for EC50: potentiation, agonist glutamate at EC20, read-out: EC50 nM Glutam.; for Fold Increase Glutam. / Fold Increase 1 microM Glutam.: agonist glutamate
Source text: (§1) Cell lines stably transfected were generated using inducible expression vectors encoding human mGlu5 receptor using the Tetracycline-Regulated Expression system (T-REx™ system, Invitrogen, Life Technologies). Human mGluR5 open reading frame (ORF), comprehensive of the stop codon, were cloned into the pcDNA4/TO/myc-His™ A vector, carrying the TetO2 sequences. The insertion site was HindIII-PstI for mGluR5 receptors. The obtained constructs were then transfected into the T-REx CHO™ cell line using the FuGENE protocol (Roche); the CHO T-REx™ cell line stably expresses the Tet repressor (from the pcDNA6/TR plasmid) under the selection of blasticidin, 10 μg/ml. Stable clones were obtained selecting with zeocine 1 mg/ml and maintaining in ULTRA CHO medium (LONZA) supplemented with dialyzed FBS, zeocin, blasticidine, at 37° C., in an atmosphere of 5% CO2. The expression of h-mGluR5 receptors was de-repressed with 1 μg/ml tetracycline for 18 h before binding experimentation, while the expression of h-mGluR5 receptors was de-repressed respectively with 3 ng/ml and 10 ng/ml tetracycline for 18 h before calcium fluorescence experimentation.
(§2) Cells were seeded into black-walled, clear-bottom, 96-well plates at a density of 80000 cell/well, in RPMI (without Phenol Red, without L-glutamine; Gibco LifeTechnologies, CA) supplemented with 10% dialyzed FBS. Following 18-h incubation with tetracycline, the cells were loaded with […] Ca^2+—sensitive fluorescent dye Fluo-4/AM (Molecular Probes) in Hanks' balanced saline solution (HBSS, Gibco LifeTechnologies, CA) with 20 mM Hepes (Sigma) and 2.5 mM probenecid (Sigma), for 1 h at 37° C. The cells were washed three times with HBSS to remove extracellular dye. Fluorescence signals were measured by using the fluorescence microplate reader Flexstation III (Molecular Devices) at sampling intervals of 1.5 s for 60 s.
(§3) The antagonist potency was determined using the EC80 of the quisqualate used as agonist and the potentiation of mGlu5 activation was determined using the EC20 of the agonist (quisqualate or glutamate). The compounds were applied 10 minutes before the application of the agonist. For binding and calcium assay studies, the compounds were dissolved in DMSO or demineralized water according to their solubility. All the reported doses were those of the corresponding salts or bases.

[2] = target: T1, human mGlu5 receptor (CHO T-REx h-mGluR5 cells); assay: Radioligand binding assay at cloned mGluR5 ([3H]MPEP displacement); conditions: 4 nM [3H]MPEP, read-out: h.c. mglu R5 IC50
Source text: as §1
Affinity at transmembrane glutamate metabotropic mGluR5 receptor subtypes was evaluated according to the methods of Anderson (Anderson et al., J Pharmacol. Exp. Ther., (2002), Vol. 303(3), pp. 1044-51), with some modifications. Cloned mGluR5 was obtained by re-suspending CHO T-REx h-mGluR5 cells (50 μg/well) in 20 mM HEPES, 2 mM MgCl2, 2 mM CaCl2, pH 7.4, that then were incubated in a final volume of 1 ml for 60 min at 25° C. with 4 nM [^3H]MPEP in the absence or presence of competing drugs. Non-specific binding was determined in the presence of […] MPEP. The incubation was stopped by addition of cold Tris buffer pH 7.4 and rapid filtration through 0.2% polyethyleneimine pretreated Filtermat 1204-401 (Perkin Elmer) filters. The filters were then washed with cold buffer and the radioactivity retained on the filters was counted by liquid scintillation spectrometry (Betaplate 1204 BS-Wallac).
as §3
The inhibition curves of the tested compounds at native and cloned mGluR1 and mGluR5 subtypes were determined by nonlinear regression analysis using software Prism 4.0 (Graphpad, San Diego, Calif.). The IC50 values and pseudo-Hill slope coefficients were estimated by the program. The values for the inhibition constant, Ki, were calculated according to the equation Ki=IC50/(1+[L]/Kd), where [L] is the concentration of radioligand and Kd is the equilibrium dissociation constant of the radioligand-receptor complex (Cheng et al., Biochem. Pharmacol. (1973), Vol. 22, pp. 3099-3108).

[3] = target: T1, human mGlu5 receptor (CHO T-REx h-mGluR5 cells); assay: Calcium fluorescence measurement, potentiation of mGlu5 activation at EC20 of quisqualate; assay type: cell-based
Source text: as §1, §2, §3

T1 sequence (P41594 21-1212): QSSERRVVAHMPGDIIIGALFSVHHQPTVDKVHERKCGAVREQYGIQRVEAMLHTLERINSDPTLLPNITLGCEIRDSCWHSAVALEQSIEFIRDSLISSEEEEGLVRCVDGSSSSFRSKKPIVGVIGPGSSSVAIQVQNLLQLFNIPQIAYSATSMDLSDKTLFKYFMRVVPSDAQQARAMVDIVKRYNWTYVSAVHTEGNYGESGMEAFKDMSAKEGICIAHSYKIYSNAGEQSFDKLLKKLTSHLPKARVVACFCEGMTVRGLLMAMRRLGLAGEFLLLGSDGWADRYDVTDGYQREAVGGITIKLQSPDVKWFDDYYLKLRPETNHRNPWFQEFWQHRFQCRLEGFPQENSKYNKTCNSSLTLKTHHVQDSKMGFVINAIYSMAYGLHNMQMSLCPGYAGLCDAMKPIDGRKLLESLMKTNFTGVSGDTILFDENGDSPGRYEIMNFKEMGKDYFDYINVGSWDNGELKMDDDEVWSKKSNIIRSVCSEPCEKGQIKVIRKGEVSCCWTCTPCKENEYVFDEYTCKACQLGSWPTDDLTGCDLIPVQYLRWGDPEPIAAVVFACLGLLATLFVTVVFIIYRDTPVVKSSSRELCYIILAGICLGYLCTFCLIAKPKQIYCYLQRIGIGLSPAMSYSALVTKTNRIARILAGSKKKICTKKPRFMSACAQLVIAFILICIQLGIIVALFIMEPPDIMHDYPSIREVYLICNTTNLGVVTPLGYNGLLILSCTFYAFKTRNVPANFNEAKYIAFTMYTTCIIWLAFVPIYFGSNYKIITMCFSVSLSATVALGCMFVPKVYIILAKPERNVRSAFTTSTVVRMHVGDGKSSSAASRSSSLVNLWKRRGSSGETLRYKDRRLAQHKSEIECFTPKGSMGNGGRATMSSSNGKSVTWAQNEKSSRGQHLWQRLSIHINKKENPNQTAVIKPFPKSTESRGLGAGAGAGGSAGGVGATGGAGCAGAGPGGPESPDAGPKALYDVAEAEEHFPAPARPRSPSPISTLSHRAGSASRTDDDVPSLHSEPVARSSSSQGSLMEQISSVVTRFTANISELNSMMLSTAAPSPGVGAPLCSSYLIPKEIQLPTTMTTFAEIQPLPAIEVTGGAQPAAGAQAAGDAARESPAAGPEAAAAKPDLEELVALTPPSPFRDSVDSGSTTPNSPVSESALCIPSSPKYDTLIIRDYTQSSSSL

SMILES	EC50 [1] [nM]	IC50 [2] [nM]	Fold Increase Glutam. [1] [fold]	Fold Increase 1 microM Glutam. [1] [fold]	also measured
CCOC(=O)N1CCC2C(C#Cc3cccc(C)c3)=NOC21 (stereo not shown) [Example 16, ethyl 3-[2-(m-tolyl)ethynyl]-3a,4,5,6a-tetrahydropyrrolo[3,2-d]isoxazole-6-carboxylate]	–	152	–	–	–
Cc1cccc(C#CC2=NOC3C2CCN3C(=O)OC(C)(C)C)n1 (stereo not shown) [Example 5, tert-butyl 3-[2-(6-methyl-2-pyridyl)ethynyl]-3a,4,5,6a-tetrahydropyrrolo[3,2-d]isoxazole-6-carboxylate]	–	708	–	–	Fold Inc. Quisq. ([3]; agonist quisqualate): 0 fold
CCN(C(=O)N1CCC2C(C#Cc3cccc(Cl)c3)=NOC21)C(C)C (stereo not shown) [Example 4, 3-[2-(3-chlorophenyl)ethynyl]-N-ethyl-N-isopropyl-3a,4,5,6a-tetrahydropyrrolo[3,2-d]isoxazole-6-carboxamide]	–	6.99	–	–	–
O=C(OCC1CC1)N1CCC2C(C#Cc3cccc(Cl)c3)=NOC21 (stereo not shown) [Example 22, cyclopropylmethyl-3-(3-chlorophenylethynyl)-3a,4,5,6a-tetrahydropyrrolo[3,2-d]isoxazole-6-carboxylate]	777	–	4.7	3.11	–
CC(C)(C)COC(=O)N1CCC2C(C#Cc3cccc(Cl)c3)=NOC21 (stereo not shown) [Example 24, 2,2-dimethylpropyl-3-(3-chlorophenylethynyl)-3a,4,5,6a-tetrahydropvrrolo[3,2-d]isoxazole-6-carboxylate]	33.9	–	5.8	8.48	–
O=C(Nc1cccnc1)N1CCC2C(C#Cc3cccc(Cl)c3)=NOC21 (stereo not shown) [Example 36, 3-(3-chlorophenylethynyl)-N-(pyridin-3-yl)-3a,4,5,6a-tetrahydropyrrolo[3,2-d]isoxazole-6-carboxamide]	–	–	0	–	–
CON(C)C(=O)N1CCC2C(C#Cc3cccc(C)n3)=NOC21 (stereo not shown) [Example 19, N-methoxy-N-methyl-3-[2-(6-methyl-2-pyridyl)ethynyl]-3a,4,5,6a-tetrahydropyrrolo[3,2-d]isoxazole-6-carboxamide]	–	239	–	–	–
CC(C)OC(=O)N1CCC2C(C#Cc3cccc(Cl)c3)=NOC21 (stereo not shown) [Example 21, isopropyl-3-(3-chlorophenylethynyl)-3a,4,5,6a-tetrahydropyrrolo[3,2-d]isoxazole-6-carboxylate]	–	–	0	–	–
CC(C)CCOC(=O)N1CCC2C(C#Cc3cccc(Cl)c3)=NOC21 (stereo not shown) [Example 34, 3-methylbutyl-3-(3-chlorophenylethynyl)-3a,4,5,6a-tetrahydropyrrolo[3,2-d]isoxazole-6-carboxylate]	542	–	–	–	–
O=C(C1CCOCC1)N1CCC2C(C#Cc3cccc(Cl)c3)=NOC21 (stereo not shown) [Example 31, 3-(3-chlorophenylethynyl)-3a,4,5,6a-tetrahydropyrro[3,5,6a-tetrahdrorrolo3,2-d]oxazol-6-yl-(oxan-4-yl)methanone]	301	–	5.29	2.14	–
CN1CCN(C(=O)N2CCC3C(C#Cc4cccc(Cl)c4)=NOC32)CC1 (stereo not shown) [Example 32, 3-(3-chlorophenylethynyl)-3a,4,5,6a-tetrahydropyrrolo[3,2-d]isoxazol-6-yl-(4-methylpiperazin-1-yl)methanone]	1100	–	2.92	1.92	–
CCOC(=O)N1CCC2C(C#Cc3cccc(C)n3)=NOC21 (stereo not shown) [Example 20, ethyl 3-[2-(6-methyl-2-pyridyl)ethynyl]-3a,4,5,6a-tetrahydropyrrolo[3,2-d]isoxazole-6-carboxylate]	–	> 1000	–	–	Fold Inc. Quisq. ([3]; agonist quisqualate): 0 fold

More lines, main results first:

EC50 [1] [nM]	IC50 [2] [nM]	Fold Increase Glutam. [1] [fold]	Fold Increase 1 microM Glutam. [1] [fold]	SMILES	also measured
144	–	–	–	O=C(OC1CCCC1)N1CCC2C(C#Cc3cccc(Cl)c3)=NOC21 (stereo not shown) [Example 23, cyclopentyl-3-(3-chlorophenylethynyl)-3a,4,5,6a-tetrahydropyrrolo[3,2-d]isoxazole-6-carboxylate]	–
–	10.6	–	–	Cc1cccc(C#CC2=NOC3C2CCN3C(=O)N2CCCCC2)c1 (stereo not shown) [Example 12, [3-[2-(m-tolyl)ethynyl]-3a,4,5,6a-tetrahydropyrrolo[3,2-d]isoxazol-6-yl]-(1-piperidyl)methanone]	–
–	–	0	–	O=C(c1ccoc1)N1CCC2C(C#Cc3cccc(Cl)c3)=NOC21 (stereo not shown) [Example 28]	–
–	–	0	–	CC(C)NC(=O)N1CCC2C(C#Cc3cccc(Cl)c3)=NOC21 (stereo not shown) [Example 25, 3-(3-chlorophenylethynyl)-N-(propan-2-yl)-3a,4,5,6a-tetrahydropyrrolo[3,2-d]isoxazole-6-carboxamide]	–
–	–	0	–	Cc1ccc(C(=O)N2CCC3C(C#Cc4cccc(Cl)c4)=NOC32)o1 (stereo not shown) [Example 29, 3-(3-chlorophenylethynyl)-3a,4,5,6a-tetrahydropyrrolo[3,2-d]isoxazol-6-yl-(5-methylfuran-2-yl)methanone]	–
95.2	24.8	5.1	3.24	O=C(N1CCOCC1)N1CCC2C(C#Cc3cccc(Cl)c3)=NOC21 (stereo not shown) [Example 6, [3-[2-(3-chlorophenyl)ethynyl]-3a,4,5,6a-tetrahydropyrrolo[3,2-d]isoxazol-6-yl]-morpholino-methanone]	Fold Shift 1 microM Quisq. ([3]; 1 microM, agonist quisqualate): 2.7 fold; Fold Inc. Quisq. ([3]; agonist quisqualate): 3.3 fold; EC50 ([3]; potentiation, agonist quisqualate at EC20, read-out: EC50 nM Quisq.): 132 nM
–	> 1000	–	–	Cc1cccc(C#CC2=NOC3C2CCN3C(=O)N2CCCCC2)n1 (stereo not shown) [Example 17, [3-[2-(6-methyl-2-pyridyl)ethynyl]-3a,4,5,6a-tetrahydropyrrolo[3,2-d]isoxazol-6-yl]-(1-piperidyl)methanone]	Fold Inc. Quisq. ([3]; agonist quisqualate): 1.27 fold
54.6	–	5.09	2.65	CC(C)(C)NC(=O)N1CCC2C(C#Cc3cccc(Cl)c3)=NOC21 (stereo not shown) [Example 26, N-t-butyl-3-(3-chlorophenylethynyl)-3a,4,5,6a-tetrahydropyrrolo[3,2-d]isoxazole-6-carboxamide]	–
96.9	–	5.11	4.08	O=C(NC1CCCC1)N1CCC2C(C#Cc3cccc(Cl)c3)=NOC21 (stereo not shown) [Example 27, 3-(3-chlorophenylethynyl)-N-cyclopentyl-3a,4,5,6a-tetrahydropyrrolo[3,2-d]isoxazole-6-carboxamide]	–
–	> 1000	–	–	Cc1cccc(C#CC2=NOC3C2CCN3C(=O)N2CCOCC2)n1 (stereo not shown) [Example 18, [3-[2-(6-methyl-2-pyridyl)ethynyl]-3a,4,5,6a-tetrahydropyrrolo[3,2-d]isoxazol-6-yl]-morpholino-methanone]	–
108	–	3.69	3.95	O=C(C1CCCC1)N1CCC2C(C#Cc3cccc(Cl)c3)=NOC21 (stereo not shown) [Example 30, 3-(3-chlorophenylethynyl)-3a,4,5,6a-tetrahydropyrrolo[3,2-d]isoxazol-6-yl-(cyclopentyl)methanone]	–
